How the values were obtained:
Bmi-1 protein = assay: Sandwich ELISA Assay (Bmi-1 protein level in HT-1080 cells after compound treatment); type: cell-based; conditions: Table 1, Bmi-1 sandwich ELISA, read-out: ELISA EC50 value for Bmi-1 protein
Outline: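 Sandwich ELISA quantified Bmi-1 protein against recombinant standard (125–8000 pg/mL), with lysates captured overnight at 4 °C and signal by HRP/TMB at 450 nm (570 nm reference). Lysates came from HT-1080 cells incubated 40–48 h with test compounds in 0.5% DMSO.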

| EC50 (Bmi-1 protein) [nM] | melting point [°C] | SMILES |
| --- | --- | --- |
| 1 to 10 | 215 to 217 | N#Cc1cc(Nc2ccc(OC(F)F)cc2)nc(-c2c(C(F)F)nc3ccc(F)cn23)c1 [compound 467, 2-{[4-(difluoromethoxy)phenyl]amino}-6-[2-(difluoromethyl)-6-fluoroimidazo[1,2-a]pyridin-3-yl]pyridine-4-carbonitrile] |
| 10 to 100 | 239 to 241 | Cc1cc(Nc2cc(C#N)cc(-c3c(C(F)F)nc4ccc(F)cn34)n2)cnc1OC(F)F [compound 468, 2-{[6-(difluoromethoxy)-5-methylpyridin-3-yl]amino}-6-[2-(difluoromethyl)-6-fluoroimidazo[1,2-a]pyridin-3-yl]pyridine-4-carbonitrile] |
| 10 to 100 | 285 to 288 | N#Cc1cc(Nc2ccc(C(F)(F)F)nc2)nc(-c2c(C(F)F)nc3ccc(F)cn23)c1 [compound 469, 2-[2-(difluoromethyl)-6-fluoroimidazo[1,2-a]pyridin-3-yl]-6-{[6-(trifluoromethyl)pyridin-3-yl]amino}pyridine-4-carbonitrile] |
| 100 to 3000 | 219 to 222 | Cc1cc(Nc2cc(C#N)cc(-c3c(C)nc4ccc(F)cn34)n2)cnc1OC(F)F [compound 470, 2-{[6-(difluoromethoxy)-5-methylpyridin-3-yl]amino}-6-(6-fluoro-2-methylimidazo[1,2-a]pyridin-3-yl)pyridine-4-carbonitrile] |
| 100 to 3000 | 236 to 238 | Cc1cc(Nc2cc(C#N)cc(-c3c(C)nc4c(F)cc(F)cn34)n2)cnc1OC(F)F [compound 471, 2-{[6-(difluoromethoxy)-5-methylpyridin-3-yl]amino}-6-(6,8-difluoro-2-methylimidazo[1,2-a]pyridin-3-yl)pyridine-4-carbonitrile] |
| 1 to 10 | 180 to 182 | Fc1ccc2nc(C(F)F)c(-c3cncc(Nc4ccc(C(F)(F)F)cc4)n3)n2c1 [compound 472, 6-[2-(difluoromethyl)-6-fluoroimidazo[1,2-a]pyridin-3-yl]-N-[4-(trifluoromethyl)phenyl]pyrazin-2-amine] |
| < 1 | 167 to 169 | Fc1ccc2nc(C(F)F)c(-c3cncc(Nc4ccc(OC(F)F)cc4)n3)n2c1 [compound 473, N-[4-(difluoromethoxy)phenyl]-6-[2-(difluoromethyl)-6-fluoroimidazo[1,2-a]pyridin-3-yl]pyrazin-2-amine] |
| 10 to 100 | 233 to 235 | N#Cc1cc(Nc2ccc(C(F)(F)F)cc2)nc(-n2c(C3CC3)nc3c(F)cc(F)cc32)c1 [compound 474, 2-(2-cyclopropyl-4,6-difluoro-1H-benzimidazol-1-yl)-6-{[4-(trifluoromethyl)phenyl]amino}pyridine-4-carbonitrile] |
| 10 to 100 | 168 to 170 | N#Cc1cc(Nc2ccc(OC(F)F)cc2)nc(-n2c(C3CC3)nc3c(F)cc(F)cc32)c1 [compound 475, 2-(2-cyclopropyl-4,6-difluoro-1H-benzimidazol-1-yl)-6-{[4-(difluoromethoxy)phenyl]amino}pyridine-4-carbonitrile] |
| 10 to 100 | 207 to 209 | N#Cc1cc(Nc2ccc(OC(F)F)nc2)nc(-n2c(C3CC3)nc3c(F)cc(F)cc32)c1 [compound 478, 2-(2-cyclopropyl-4,6-difluoro-1H-benzimidazol-1-yl)-6-{[6-(difluoromethoxy)pyridin-3-yl]amino}pyridine-4-carbonitrile] |
| 1 to 10 | 225 to 227 | Fc1ccc2nc(C(F)F)c(-c3cncc(Nc4ccc(OC(F)F)nc4)n3)n2c1 [compound 479, N-[6-(difluoromethoxy)pyridin-3-yl]-6-[2-(difluoromethyl)-6-fluoroimidazo[1,2-a]pyridin-3-yl]pyrazin-2-amine] |
| 100 to 3000 | 204 to 207 | Cc1nc2ccc(F)cn2c1-c1cncc(Nc2ccc(OC(F)F)nc2)n1 [compound 480, N-[6-(difluoromethoxy)pyridin-3-yl]-6-(6-fluoro-2-methylimidazo[1,2-a]pyridin-3-yl)pyrazin-2-amine] |
| 10 to 100 | 229 to 231 | FC(F)c1nc2ccccc2n1-c1cncc(Nc2ccc(C(F)(F)F)cc2)n1 [compound 481, 6-[2-(difluoromethyl)-1H-benzimidazol-1-yl]-N-[4-(trifluoromethyl)phenyl]pyrazin-2-amine] |
| 10 to 100 | 213 to 216 | FC(F)Oc1ccc(Nc2cncc(-n3c(C(F)F)nc4ccccc43)n2)cc1 [compound 482, N-[4-(difluoromethoxy)phenyl]-6-[2-(difluoromethyl)-1H-benzimidazol-1-yl]pyrazin-2-amine] |
| 10 to 100 | 220 to 222 | Fc1cc(Nc2cncc(-n3c(C(F)F)nc4ccccc43)n2)ccc1OC(F)F [compound 483, N-[4-(difluoromethoxy)-3-fluorophenyl]-6-[2-(difluoromethyl)-1H-benzimidazol-1-yl]pyrazin-2-amine] |
| 10 to 100 | 225 to 227 | N#Cc1cc(Nc2ccc(C(F)(F)F)cc2)nc(-n2c(C(F)F)nc3ccccc32)c1 [compound 484, 2-[2-(difluoromethyl)-1H-benzimidazol-1-yl]-6-{[4-(trifluoromethyl)phenyl]amino}pyridine-4-carbonitrile] |

| EC50 (Bmi-1 protein) [nM] | melting point [°C] | SMILES |
| --- | --- | --- |
| 100 to 3000 | 289 to 291 | Fc1ccc2nc(C3CCC3)n(-c3cncc(Nc4ccc(C(F)(F)F)cc4)n3)c2c1 [compound 485, 6-(2-cyclobutyl-6-fluoro-1H-benzimidazol-1-yl)-N-[4-(trifluoromethyl)phenyl]pyrazin-2-amine] |
| 10 to 100 | 197 to 199 | Fc1ccc2nc(C(F)F)n(-c3cncc(Nc4ccc(C(F)(F)F)cc4)n3)c2c1 [compound 486, 6-[2-(difluoromethyl)-6-fluoro-1H-benzimidazol-1-yl]-N-[4-(trifluoromethyl)phenyl]pyrazin-2-amine] |
| 10 to 100 | 237 to 238 | Cc1cn2c(-c3cc(C#N)cc(Nc4ccc(C(F)(F)F)cc4)n3)c(C)nc2c(C)n1 [compound 487, 2-{[4-(trifluoromethyl)phenyl]amino}-6-(2,6,8-trimethylimidazo[1,2-a]pyrazin-3-yl)pyridine-4-carbonitrile] |
| 10 to 100 | 102 to 105 | Cc1cn2c(-c3cncc(Nc4ccc(C(F)(F)F)cc4)n3)c(C)nc2c(C)n1 [compound 488, N-[4-(trifluoromethyl)phenyl]-6-(2,6,8-trimethylimidazo-[1,2-a]pyrazin-3-yl)pyrazin2-amine] |
| 1 to 10 | 140 to 141 | Cc1cn2c(-c3cncc(Nc4ccc(OC(F)F)cc4)n3)c(C)nc2c(C)n1 [compound 489, N-[4-(difluoromethoxy)phenyl]-6-(2,6,8-trimethylimidazo[1,2-a]pyrazin-3-yl)pyrazin-2-amine] |
| 100 to 3000 | 150 to 152 | Cc1cn2c(-c3cc(C#N)cc(Nc4ccc(C(F)(F)F)cc4)n3)c(C3CC3)nc2c(C)n1 [compound 491, 2-(2-cyclopropyl-6,8-dimethylimidazo[1,2-a]pyrazin-3-yl)-6-{[4-(trifluoromethyl)phenyl]amino}pyridine-4-carbonitrile] |
| 10 to 100 | 209 to 211 | Cc1nc2cc(F)c(F)cc2n1-c1cncc(Nc2ccc(C(F)F)cc2)n1 [compound 501, 6-(5,6-difluoro-2-methyl-1H-benzimidazol-1-yl)-N-[4-(difluoromethyl)phenyl]pyrazin-2-amine] |
| 10 to 100 | 122 to 125 | Fc1ccn2nc(C3CC3)c(-c3cncc(Nc4ccc(C(F)(F)F)cc4)n3)c2c1 [compound 535, 6-(2-cyclopropyl-5-fluoropyrazolo[1,5-a]pyridin-3-yl)-N-[4-(trifluoromethyl)phenyl]pyrazin-2-amine] |
| 10 to 100 | 183 to 186 | [O-][n+]1cc(Nc2ccc(C(F)(F)F)cc2)nc(-c2c(C3CC3)nn3ccc(F)cc23)c1 [compound 536, 6-(2-cyclopropyl-5-fluoropyrazolo[1,5-a]pyridin-3-yl)-N-[4-(trifluoromethyl)phenyl]pyrazin-2-amine 4-oxide] |
| 100 to 3000 | 129 to 131 | CCc1nn2ccc(F)cc2c1-c1cncc(Nc2ccc(C(F)(F)F)cc2)n1 [compound 551, 6-(2-ethyl-5-fluoropyrazolo[1,5-a]pyridin-3-yl)-N-[4-(trifluoromethyl)phenyl]pyrazin-2-amine] |
| < 1 | 184 to 186 | COc1ccc(Nc2cncc(-n3c(C)nc4ccc(F)cc43)n2)cc1 [compound 552, 6-(6-fluoro-2-methyl-1H-benzimidazol-1-yl)-N-(4-methoxyphenyl)pyrazin-2-amine] |
| 100 to 3000 | 300 to 303 | Cc1nc2ccc(F)cc2n1-c1cncc(Nc2ccc(C#N)cc2)n1 [compound 555, 4-{[6-(6-fluoro-2-methyl-1H-benzimidazol-1-yl)pyrazin-2-yl]amino}benzonitrile] |
| 10 to 100 | 198 to 200 | COC(=O)c1ccc(Nc2cncc(-n3c(C)nc4ccc(F)cc43)n2)cc1 [compound 556, methyl 4-{[6-(6-fluoro-2-methyl-1H-benzimidazol-1-yl)pyrazin-2-yl]amino}benzoate] |
| 10 to 100 | 189 to 191 | Cc1nc2ccc(F)cc2n1-c1cncc(Nc2ccc(N)cc2)n1 [compound 558, N-[6-(6-fluoro-2-methyl-1H-benzimidazol-1-yl)pyrazin-2-yl]benzene-1,4-diamine] |
| 100 to 3000 | 173 to 174 | Cc1cccc(Nc2cncc(-n3c(C)nc4ccc(F)cc43)n2)c1 [compound 560, 6-(6-fluoro-2-methyl-1H-benzimidazol-1-yl)-N-(3-methylphenyl)pyrazin-2-amine] |

— patent US10584115B2, “Substituted pyridine and pyrazine BMI-1 inhibitors” (PTC Therapeutics, Inc., priority 2013, dated 2020)
